From the CheMixHub viscosity set
Where “and” joins values, the source holds several entries; their conditions need not be identical. Equal entries are not always repeated. ± gives the uncertainty stated by the source.

Assay: xn = mol fraction of the nth substance listed

CCCOC(=O)c1ccccc1 + CCCCCCCC
101 kPa
Conditions | viscosity [mPa·s]
298.15 K, x2 = 0.0773 | 2.082 ± 0.066
298.15 K, x2 = 0.1026 | 1.998 ± 0.063
298.15 K, x2 = 0.1613 | 1.792 ± 0.057
298.15 K, x2 = 0.2565 | 1.512 ± 0.048
298.15 K, x2 = 0.3067 | 1.381 ± 0.044
298.15 K, x2 = 0.3482 | 1.286 ± 0.041
298.15 K, x2 = 0.3951 | 1.187 ± 0.038
298.15 K, x2 = 0.4424 | 1.094 ± 0.035
298.15 K, x2 = 0.4882 | 1.018 ± 0.032
298.15 K, x2 = 0.5342 | 0.948 ± 0.03
298.15 K, x2 = 0.5836 | 0.882 ± 0.028
298.15 K, x2 = 0.6253 | 0.828 ± 0.026
298.15 K, x2 = 0.6796 | 0.769 ± 0.025
298.15 K, x2 = 0.727 | 0.723 ± 0.023
298.15 K, x2 = 0.8351 | 0.633 ± 0.02
298.15 K, x2 = 0.9429 | 0.558 ± 0.018
308.15 K, x2 = 0.0816 | 1.645 ± 0.052
308.15 K, x2 = 0.13 | 1.512 ± 0.048
308.15 K, x2 = 0.1656 | 1.421 ± 0.045
308.15 K, x2 = 0.2095 | 1.318 ± 0.042
308.15 K, x2 = 0.2541 | 1.225 ± 0.039
308.15 K, x2 = 0.2993 | 1.136 ± 0.036
308.15 K, x2 = 0.3584 | 1.034 ± 0.033
308.15 K, x2 = 0.3968 | 0.972 ± 0.031
308.15 K, x2 = 0.4503 | 0.897 ± 0.029
308.15 K, x2 = 0.4892 | 0.846 ± 0.027
308.15 K, x2 = 0.5375 | 0.79 ± 0.025
308.15 K, x2 = 0.5822 | 0.743 ± 0.024
308.15 K, x2 = 0.6192 | 0.707 ± 0.023
308.15 K, x2 = 0.6824 | 0.653 ± 0.021
308.15 K, x2 = 0.7188 | 0.625 ± 0.02
308.15 K, x2 = 0.7692 | 0.588 ± 0.019
308.15 K, x2 = 0.8292 | 0.55 ± 0.018
308.15 K, x2 = 0.8674 | 0.527 ± 0.017
308.15 K, x2 = 0.9303 | 0.497 ± 0.016
318.15 K, x2 = 0.0629 | 1.422 ± 0.045
318.15 K, x2 = 0.09 | 1.361 ± 0.043
318.15 K, x2 = 0.1362 | 1.261 ± 0.04
318.15 K, x2 = 0.1878 | 1.163 ± 0.037
318.15 K, x2 = 0.233 | 1.081 ± 0.034
318.15 K, x2 = 0.2525 | 1.047 ± 0.033
318.15 K, x2 = 0.33 | 0.926 ± 0.03
318.15 K, x2 = 0.3813 | 0.856 ± 0.027
318.15 K, x2 = 0.4267 | 0.801 ± 0.026
318.15 K, x2 = 0.4776 | 0.744 ± 0.024
318.15 K, x2 = 0.5373 | 0.686 ± 0.022
318.15 K, x2 = 0.5751 | 0.653 ± 0.021
318.15 K, x2 = 0.6208 | 0.616 ± 0.02
318.15 K, x2 = 0.671 | 0.581 ± 0.019
318.15 K, x2 = 0.7073 | 0.556 ± 0.018
318.15 K, x2 = 0.7545 | 0.53 ± 0.017
318.15 K, x2 = 0.8156 | 0.497 ± 0.016
318.15 K, x2 = 0.8667 | 0.472 ± 0.015
318.15 K, x2 = 0.9127 | 0.453 ± 0.015

C=COC(C)=O + Cc1cccc(C)c1
viscosity [mPa·s], 101 kPa
Conditions | x1 = 0.1482 | x1 = 0.2434 | x1 = 0.3456 | x1 = 0.4518 | x1 = 0.5741 | x1 = 0.6832 | x1 = 0.7598 | x1 = 0.8817 | x1 = 0.9602
303.15 K | 0.52 ± 0.007 | 0.502 ± 0.006 | 0.483 ± 0.006 | 0.465 ± 0.006 | 0.445 ± 0.006 | 0.428 ± 0.006 | 0.414 ± 0.005 | 0.401 ± 0.005 | 0.392 ± 0.005
313.15 K | 0.469 ± 0.006 | 0.452 ± 0.006 | 0.434 ± 0.006 | 0.416 ± 0.005 | 0.399 ± 0.005 | 0.383 ± 0.005 | 0.37 ± 0.005 | 0.358 ± 0.005 | 0.35 ± 0.005

Oc1ccccc1Cl + CO
Conditions | viscosity [mPa·s]
303.15 K, 101 kPa, x1 = 0.2447 | 1.911 ± 0.86

NC(=O)C[C@H](N)C(=O)O + O
viscosity, 101 kPa
Conditions | x1 = 0.00045 | x1 = 0.0009 | x1 = 0.001 | x1 = 0.00135 | x1 = 0.001798 | x1 = 0.002247 | x1 = 0.002695 | x1 = 0.003
293.15 K | 1.01 ± 0.023 mPa·s | 1.018 ± 0.023 mPa·s | 1.015 ± 0.022 mPa·s | 1.025 ± 0.024 mPa·s | 1.033 ± 0.024 mPa·s | 1.041 ± 0.024 mPa·s | 1.049 ± 0.024 mPa·s | 1.033 ± 0.022 mPa·s
298.15 K | 0.8972 ± 0.021 mPa·s | 0.9037 ± 0.021 mPa·s | 0.9105 ± 0.019 mPa·s | 0.9104 ± 0.021 mPa·s | 0.917 ± 0.021 mPa·s | 0.9236 ± 0.021 mPa·s | 0.9301 ± 0.021 mPa·s | 0.9306 ± 0.02 mPa·s
303.15 K | 0.8033 ± 0.018 mPa·s | 0.8089 ± 0.019 mPa·s | 0.8147 ± 0.017 mPa·s | 0.8146 ± 0.019 mPa·s | 0.8202 ± 0.019 mPa·s | 0.8258 ± 0.019 mPa·s | 0.8314 ± 0.019 mPa·s | 0.8318 ± 0.017 mPa·s and 0.8318 ± 0.018 mPa·s
308.15 K | 0.7243 ± 0.017 mPa·s | 0.7292 ± 0.017 mPa·s | 0.734 ± 0.015 mPa·s and 0.734 ± 0.016 mPa·s | 0.734 ± 0.017 mPa·s | 0.7388 ± 0.017 mPa·s | 0.7436 ± 0.017 mPa·s | 0.7484 ± 0.017 mPa·s | 0.7488 ± 0.016 mPa·s
313.15 K | 0.6573 ± 0.015 mPa·s | 0.6615 ± 0.015 mPa·s | 0.6657 ± 0.014 mPa·s | 0.6657 ± 0.015 mPa·s | 0.6699 ± 0.015 mPa·s | 0.674 ± 0.015 mPa·s | 0.6782 ± 0.016 mPa·s | 0.6785 ± 0.014 mPa·s
318.15 K | 0.6013 ± 0.014 mPa·s | 0.605 ± 0.014 mPa·s | 0.6087 ± 0.013 mPa·s | 0.6087 ± 0.014 mPa·s | 0.6123 ± 0.014 mPa·s | 0.6159 ± 0.014 mPa·s | 0.6195 ± 0.014 mPa·s | 0.6198 ± 0.013 mPa·s

CCC(CC)CO + CCO
298.15 K, 101.33 kPa
Conditions | viscosity [mPa·s]
x2 = 0.1055 | 5.144 ± 0.045
x2 = 0.2003 | 4.502 ± 0.041
x2 = 0.3067 | 3.844 ± 0.036
x2 = 0.4044 | 3.291 ± 0.032
x2 = 0.503 | 2.777 ± 0.029
x2 = 0.6076 | 2.35 ± 0.026
x2 = 0.6966 | 1.972 ± 0.023
x2 = 0.8051 | 1.617 ± 0.021
x2 = 0.9036 | 1.345 ± 0.019

Oc1ccccc1Cl + C1COCCO1
101 kPa
Conditions | viscosity [mPa·s]
298.15 K, x1 = 0.2 | 1.965 ± 0.12
298.15 K, x1 = 0.4 | 3.235 ± 0.064
298.15 K, x1 = 0.6 | 5.018 ± 0.05
298.15 K, x1 = 0.8 | 5.556 ± 0.085
308.15 K, x2 = 0.1 | 2.996 ± 0.037
308.15 K, x2 = 0.2 | 3.489 ± 0.043
308.15 K, x2 = 0.4 | 3.32 ± 0.041
308.15 K, x2 = 0.5 | 2.866 ± 0.035
308.15 K, x2 = 0.6 | 2.311 ± 0.029
308.15 K, x2 = 0.7 | 1.849 ± 0.023
308.15 K, x2 = 0.8 | 1.478 ± 0.019
308.15 K, x2 = 0.9 | 1.182 ± 0.015

CCCCOC(C)=O + CCCCCCCC
298.15 K, 101.3 kPa
Conditions | viscosity [mPa·s]
x1 = 0.0442 | 0.5144 ± 0.0049
x1 = 0.1275 | 0.5154 ± 0.0049
x1 = 0.2822 | 0.5241 ± 0.005
x1 = 0.3556 | 0.5333 ± 0.005
x1 = 0.4596 | 0.5465 ± 0.0051
x1 = 0.5629 | 0.5633 ± 0.0053
x1 = 0.6356 | 0.5776 ± 0.0054
x1 = 0.7305 | 0.5991 ± 0.0056
x1 = 0.8441 | 0.6298 ± 0.0058
x1 = 0.9724 | 0.6725 ± 0.0061

CCCCOC(C)=O + C1COCCO1
303.15 K, 101.3 kPa
Conditions | viscosity [mPa·s]
x2 = 0.1002 | 0.6618 ± 0.0045
x2 = 0.1988 | 0.682 ± 0.0046
x2 = 0.2997 | 0.7051 ± 0.0047
x2 = 0.3963 | 0.7333 ± 0.0048
x2 = 0.4977 | 0.7684 ± 0.005
x2 = 0.6024 | 0.809 ± 0.0052
x2 = 0.7009 | 0.859 ± 0.0055
x2 = 0.7968 | 0.9174 ± 0.0058
x2 = 0.9016 | 0.9976 ± 0.0063

CCCN(CCC)C(C)=O + O
298.16 K, 101 kPa
Conditions | viscosity [mPa·s]
x2 = 0.0688 | 2.38 ± 0.02
x2 = 0.1822 | 2.71 ± 0.02
x2 = 0.3049 | 3.12 ± 0.03
x2 = 0.4342 | 3.66 ± 0.03
x2 = 0.5515 | 4.26 ± 0.04
x2 = 0.6896 | 4.87 ± 0.04
x2 = 0.74 | 4.95 ± 0.04
x2 = 0.762 | 4.95 ± 0.04
x2 = 0.7891 | 4.88 ± 0.04
x2 = 0.8742 | 3.94 ± 0.03
x2 = 0.9163 | 2.96 ± 0.03

CCCC1c2cc(c(O)c(/N=N/c3cccc(C(=O)O)c3)c2O)C(CCC)c2cc(c(O)c(/N=N/c3cccc(C(=O)O)c3)c2O)C(CCC)c2cc(c(O)c(/N=N/c3cccc(C(=O)O)c3)c2O)C(CCC)c2cc1c(O)c(/N=N/c1cccc(C(=O)O)c1)c2O (configuration not stated) + CS(C)=O
viscosity [mPa·s], 101 kPa
Conditions | 293.15 K | 298.15 K | 303.15 K | 308.15 K | 313.15 K
x1 = 0.000457 | 2.314 ± 0.02 | 2.072 ± 0.018 | 1.87 ± 0.017 | 1.698 ± 0.016 | 1.555 ± 0.015
x1 = 0.000544 | 2.345 ± 0.02 | 2.1 ± 0.018 | 1.893 ± 0.017 | 1.724 ± 0.016 | 1.579 ± 0.015
x1 = 0.000616 | 2.369 ± 0.02 | 2.124 ± 0.018 | 1.907 ± 0.017 | 1.737 ± 0.016 | 1.597 ± 0.015
x1 = 0.000708 | 2.391 ± 0.02 | 2.143 ± 0.019 | 1.931 ± 0.017 | 1.756 ± 0.016 | 1.607 ± 0.016
x1 = 0.0008532 | 2.425 ± 0.02 | 2.167 ± 0.019 | 1.952 ± 0.017 | 1.779 ± 0.016 | 1.625 ± 0.016
x1 = 0.001009 | 2.471 ± 0.021 | 2.209 ± 0.019 | 1.991 ± 0.018 | 1.812 ± 0.017 | 1.651 ± 0.016
x1 = 0.001122 | 2.52 ± 0.021 | 2.25 ± 0.019 | 2.024 ± 0.018 | 1.838 ± 0.017 | 1.68 ± 0.016
x1 = 0.001351 | 2.556 ± 0.021 | 2.284 ± 0.02 | 2.045 ± 0.018 | 1.858 ± 0.017 | 1.695 ± 0.016
x1 = 0.001491 | 2.633 ± 0.022 | 2.346 ± 0.02 | 2.104 ± 0.018 | 1.905 ± 0.017 | 1.739 ± 0.016
x1 = 0.001636 | 2.678 ± 0.022 | 2.38 ± 0.02 | 2.138 ± 0.019 | 1.934 ± 0.017 | 1.764 ± 0.016
x1 = 0.001789 | 2.724 ± 0.022 | 2.43 ± 0.021 | 2.176 ± 0.019 | 1.967 ± 0.018 | 1.79 ± 0.017
